In patent publication US10717716B2, “1,3,4-oxadiazole derivative compounds as histone deacetylase 6 inhibitor, and the pharmaceutical composition comprising the same” (Chong Kun Dang Pharmaceutical Corp., priority 2015, dated 2020):

Target: T1, human recombinant HDAC6 (Homo sapiens, UniProt Q9UBN7)
T1 construct: purchased Calbiochem 382180
T1 sequence (Q9UBN7 1-1215): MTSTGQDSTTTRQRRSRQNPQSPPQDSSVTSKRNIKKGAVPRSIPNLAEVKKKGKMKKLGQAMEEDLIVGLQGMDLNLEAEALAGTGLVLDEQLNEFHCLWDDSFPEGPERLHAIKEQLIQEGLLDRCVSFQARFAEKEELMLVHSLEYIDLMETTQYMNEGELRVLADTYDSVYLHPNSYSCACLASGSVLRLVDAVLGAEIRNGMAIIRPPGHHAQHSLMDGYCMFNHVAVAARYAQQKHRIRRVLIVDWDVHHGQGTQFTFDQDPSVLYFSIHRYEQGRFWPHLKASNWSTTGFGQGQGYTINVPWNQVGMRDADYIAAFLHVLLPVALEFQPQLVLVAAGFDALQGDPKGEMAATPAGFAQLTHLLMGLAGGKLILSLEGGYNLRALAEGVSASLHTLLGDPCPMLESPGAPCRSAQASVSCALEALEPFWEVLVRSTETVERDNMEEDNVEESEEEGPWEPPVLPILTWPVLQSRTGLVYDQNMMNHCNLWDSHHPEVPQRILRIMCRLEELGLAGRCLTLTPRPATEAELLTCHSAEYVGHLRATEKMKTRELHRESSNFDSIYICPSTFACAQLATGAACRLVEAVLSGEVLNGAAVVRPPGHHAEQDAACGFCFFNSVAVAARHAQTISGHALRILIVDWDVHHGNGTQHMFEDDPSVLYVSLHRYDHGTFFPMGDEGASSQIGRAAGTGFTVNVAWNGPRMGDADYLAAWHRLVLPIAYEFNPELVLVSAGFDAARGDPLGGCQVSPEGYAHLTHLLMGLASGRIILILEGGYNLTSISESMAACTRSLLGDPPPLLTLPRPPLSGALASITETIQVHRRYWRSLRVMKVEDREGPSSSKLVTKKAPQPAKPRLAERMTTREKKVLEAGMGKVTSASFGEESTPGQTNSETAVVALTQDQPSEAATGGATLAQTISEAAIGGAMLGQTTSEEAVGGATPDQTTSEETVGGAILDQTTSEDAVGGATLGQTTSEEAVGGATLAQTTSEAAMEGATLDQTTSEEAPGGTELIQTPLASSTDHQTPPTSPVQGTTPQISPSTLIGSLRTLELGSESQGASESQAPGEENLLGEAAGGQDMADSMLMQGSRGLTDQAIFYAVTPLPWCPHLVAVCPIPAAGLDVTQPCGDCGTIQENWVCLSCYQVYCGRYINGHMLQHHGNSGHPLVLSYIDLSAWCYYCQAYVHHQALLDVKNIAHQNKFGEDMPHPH
Test: HDAC6 enzyme activity inhibition assay (HDAC Fluorimetric Drug Discovery Kit)
Assay type: biochemical
Conditions: for HDAC6 selectivity (fold): HDAC6 over HDAC1; for IC50: human recombinant HDAC6, same protocol as HDAC1, read-out: HDAC6
In short: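 Human recombinant HDAC1 or HDAC6 (0.3 μg) reacted with 10 μM Fluor de Lys-SIRT1 substrate and 5-fold compound dilutions for 60 min at 30 °C. Developer II added for 30 min, fluorescence read at Ex 360/Em 460; IC50 calculated from the readings.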

Row | SMILES | HDAC6 selectivity (fold) | IC50 [nM]
1 | O=C(N1CCS(=O)(=O)CC1)N(Cc1ccc(-c2nnc(C(F)F)o2)cc1F)c1ccc(F)cn1 [Compound 21653, N-(4-(5-(difluoromethyl)-1,3,4-oxadiazol-2-yl)-2-fluorobenzyl)-N-(5-fluoropyridin-2-yl)thiomorpholine-4-carboxamide 1,1-dioxide] | 246 | 41
2 | CN1CCN(c2cccc(N(Cc3ccc(-c4nnc(C(F)F)o4)cc3)C(=O)N3CCS(=O)(=O)CC3)c2)CC1 [Compound 21621, N-(4-(5-(difluoromethyl)-1,3,4-oxadiazol-2-yl)benzyl)-N-(3-(4-methylpiperazin-1-yl)phenyl)thiomorpholine-4-carboxamide 1,1-dioxide] | 16 | 637
3 | CN(C)[C@H]1CCN(C(=O)N(Cc2ccc(-c3nnc(C(F)F)o3)cc2F)c2cccc(Cl)c2F)C1 [Compound 21643, (S)—N-(3-chloro-2-fluorophenyl)-N-(4-(5-(difluoromethyl)-1,3,4-oxadiazol-2-yl)-2-fluorobenzyl)-3-(dimethylamino)pyrrolidine-1-carboxamide] | 352 | 28
4 | CC(C)(C)c1ccc(N(Cc2ccc(-c3nnc(C(F)F)o3)cc2F)C(=O)N2CCS(=O)(=O)CC2)cc1 [Compound 21461, N-(4-(tert-butyl)phenyl)-N-(4-(5-(difluoromethyl)-1,3,4-oxadiazol-2-yl)-2-fluorobenzyl)thiomorpholine-4-carboxamide 1,1-dioxide] | 14 | 731
5 | CC(C)c1nc2ccc(N(Cc3ccc(-c4nnc(C(F)F)o4)cc3F)C(=O)N3CCS(=O)(=O)CC3)cc2s1 [Compound 21813, N-(4-(5-(Difluoromethyl)-1,3,4-oxadiazol-2-yl)-2-fluorobenzyl)-N-(2-isopropylbenzo[d]thiazol-6-yl)thiomorpholine-4-carboxamide 1,1-dioxide] | 30 | 330
6 | O=C(N1CCOCC1)N(Cc1ncc(-c2nnc(C(F)F)o2)cn1)c1ccccc1 [Compound 21532, N-((5-(5-(difluoromethyl)-1,3,4-oxadiazol-2-yl)pyrimidin-2-yl)methyl)-N-phenylmorpholine-4-carboxamide] | 208 | 48
7 | O=C(N1CCOCC1)N(Cc1ccc(-c2nnc(C(F)F)o2)nc1)c1ccc(F)c(Cl)c1 [Compound 21766, N-(3-Chloro-4-fluorophenyl)-N-((6-(5-(difluoromethyl)-1,3,4-oxadiazol-2-yl)pyridin-3-yl)methyl)morpholine-4-carboxamide] | 88 | 114
8 | CN1CCN(C(=O)N(CCc2ccccc2)Cc2ccc(-c3nnc(C(F)F)o3)cc2F)CC1 [Compound 21554, N-(4-(5-(difluoromethyl)-1,3,4-oxadiazol-2-yl)-2-fluorobenzyl)-4-methyl-N-phenethylpiperazine-1-carboxamide] | 65 | 155
9 | O=C(NC1CCC1)N(Cc1ccc(-c2nnc(C(F)(F)F)o2)cc1)c1ccccc1 [Compound 21340, 3-Cyclobutyl-1-phenyl-1-(4-(5-(trifluoromethyl)-1,3,4-oxadiazol-2-yl)benzyl)urea] | 12 | 836
10 | O=C(N1CCOCC1)N(Cc1c(F)cc(-c2nnc(C(F)(F)F)o2)cc1F)c1ccccc1 [Compound 21431, N-(2,6-difluoro-4-(5-(trifluoromethyl)-1,3,4-oxadiazol-2-yl)benzyl)-N-phenylmorpholine-4-carboxamide] | 39 | 256
11 | CC(C)(C)c1ccc(N(Cc2ccc(-c3nnc(C(F)(F)F)o3)cc2)C(=O)N2CCS(=O)(=O)CC2)cc1 [Compound 21458, N-(4-(tert-butyl)phenyl)-N-(4-(5-(trifluoromethyl)-1,3,4-oxadiazol-2-yl)benzyl)thiomorpholine-4-carboxamide 1,1-dioxide] | 1 | 
12 | O=C(N1CCS(=O)(=O)CC1)N(Cc1ccc(-c2nnc(C(F)F)o2)cc1F)c1ccc(CN2CCOCC2)cc1 [Compound 21918, N-(4-(5-(difluoromethyl)-1,3,4-oxadiazol-2-yl)-2-fluorobenzyl)-N-(4-(morpholinomethyl)phenyl)thiomorpholine-4-carboxamide 1,1-dioxide] | 52 | 193
13 | O=C(N1CCOCC1)N(Cc1ccc(-c2nnc(C(F)(F)F)o2)cc1)c1ccc(F)cc1F [Compound 21414, N-(2,4-difluorophenyl)-N-(4-(5-(trifluoromethyl)-1,3,4-oxadiazol-2-yl)benzyl)morpholine-4-carboxamide] | 79 | 126
14 | O=C(N1CCS(=O)(=O)CC1)N(Cc1ccc(-c2nnc(C(F)(F)F)o2)cc1)c1cccc(Cl)c1 [Compound 21395, N-(3-chlorophenyl)-N-(4-(5-(trifluoromethyl)-1,3,4-oxadiazol-2-yl)benzyl)thiomorpholine-4-carboxamide 1,1-dioxide] | 137 | 73
15 | O=C(N1CCS(=O)(=O)CC1)N(Cc1ccc(-c2nnc(C(F)(F)F)o2)cc1)c1cccc(C(F)(F)F)c1 [Compound 21391, N-(4-(5-(trifluoromethyl)-1,3,4-oxadiazol-2-yl)benzyl)-N-(3-(trifluoromethyl)phenyl)thiomorpholine-4-carboxamide 1,1-dioxide] | 27 | 366
16 | CCN1CCN(C(=O)N(Cc2ccc(-c3nnc(C(F)F)o3)cc2F)c2ccc(C)c(Cl)c2)CC1 [Compound 21657, N-(3-chloro-4-methylphenyl)-N-(4-(5-(difluoromethyl)-1,3,4-oxadiazol-2-yl)-2-fluorobenzyl)-4-ethylpiperazine-1-carboxamide] | 226 | 44
17 | Cn1ccc2cc(N(Cc3ccc(-c4nnc(C(F)F)o4)cc3F)C(=O)N3CCS(=O)(=O)CC3)ccc21 [Compound 21799, N-(4-(5-(difluoromethyl)-1,3,4-oxadiazol-2-yl)-2-fluorobenzyl)-N-(1-methyl-1H-indol-5-yl)thiomorpholine-4-carboxamide 1,1-dioxide] | 33 | 305
18 | CCN1CCC2(CC1)CN(C(=O)N(Cc1ccc(-c3nnc(C(F)F)o3)cc1F)c1ccccc1)C2 [Compound 21499, N-(4-(5-(difluoromethyl)-1,3,4-oxadiazol-2-yl)-2-fluorobenzyl)-7-ethyl-N-phenyl-2,7-diazaspiro[3.5]nonane-2-carboxamide] | 588 | 17
19 | Cc1ccccc1N(Cc1ccc(-c2nnc(C(F)F)o2)cc1)C(=O)N1CCS(=O)(=O)CC1 [Compound 21452, N-(4-(5-(difluoromethyl)-1,3,4-oxadiazol-2-yl)benzyl)-N-(o-tolyl)thiomorpholine-4-carboxamide 1,1-dioxide] | 93 | 108
20 | COCCN1CCN(C(=O)N(Cc2ccc(-c3nnc(C(F)(F)F)o3)cc2)c2ccccc2)CC1 [Compound 21345, 4-(2-Methoxyethyl)-N-phenyl-N-(4-(5-(trifluoromethyl)-1,3,4-oxadiazol-2-yl)benzyl)piperazine-1-carboxamide] | 54 | 185
21 | CN1CCN(C(=O)N(Cc2ccc(-c3nnc(C(F)F)o3)cc2F)c2ccc(-c3cccnc3)cc2)CC1 [Compound 21540, N-(4-(5-(difluoromethyl)-1,3,4-oxadiazol-2-yl)-2-fluorobenzyl)-4-methyl-N-(4-(pyridin-3-yl)phenyl)piperazine-1-carboxamide] | 333 | 30
22 | O=C(NCCN1CCN(Cc2ccccc2)CC1)N(Cc1ccc(-c2nnc(C(F)F)o2)cc1F)c1ccccc1 [Compound 22013, 3-(2-(4-Benzylpiperazin-1-yl)ethyl)-1-(4-(5-(difluoromethyl)-1,3,4-oxadiazol-2-yl)-2-fluorobenzyl)-1-phenylurea] | 51 | 197
